# Laboratory results as given in patent US11866407B2 (priority 2021, dated 2024).
# Where two headings read alike, the source gives them in different places. Residues, ends and D or L forms follow the SMILES beside them. *: point of attachment. Cbz = O=C(OCc1ccccc1)*; CH2F = FC*
# Legend:
# SARS-CoV-2 M^pro = SARS-CoV-2 M^pro (Severe acute respiratory syndrome coronavirus 2, UniProt P0DTD1); assay: FRET-based enzymatic assay, SARS-CoV-2 Mpro; type: biochemical
# in vitro [1] = conditions: African green monkey
# in vitro [2] = conditions: human, Caco-2
# in vitro [3] = conditions: human
# calpain I = target: T1, calpain I (Homo sapiens, UniProt P07384); assay: Calpain I enzymatic assay; type: biochemical
# T1 construct: purchased Sigma-Aldrich C6108
# T1 sequence (P07384 1-714): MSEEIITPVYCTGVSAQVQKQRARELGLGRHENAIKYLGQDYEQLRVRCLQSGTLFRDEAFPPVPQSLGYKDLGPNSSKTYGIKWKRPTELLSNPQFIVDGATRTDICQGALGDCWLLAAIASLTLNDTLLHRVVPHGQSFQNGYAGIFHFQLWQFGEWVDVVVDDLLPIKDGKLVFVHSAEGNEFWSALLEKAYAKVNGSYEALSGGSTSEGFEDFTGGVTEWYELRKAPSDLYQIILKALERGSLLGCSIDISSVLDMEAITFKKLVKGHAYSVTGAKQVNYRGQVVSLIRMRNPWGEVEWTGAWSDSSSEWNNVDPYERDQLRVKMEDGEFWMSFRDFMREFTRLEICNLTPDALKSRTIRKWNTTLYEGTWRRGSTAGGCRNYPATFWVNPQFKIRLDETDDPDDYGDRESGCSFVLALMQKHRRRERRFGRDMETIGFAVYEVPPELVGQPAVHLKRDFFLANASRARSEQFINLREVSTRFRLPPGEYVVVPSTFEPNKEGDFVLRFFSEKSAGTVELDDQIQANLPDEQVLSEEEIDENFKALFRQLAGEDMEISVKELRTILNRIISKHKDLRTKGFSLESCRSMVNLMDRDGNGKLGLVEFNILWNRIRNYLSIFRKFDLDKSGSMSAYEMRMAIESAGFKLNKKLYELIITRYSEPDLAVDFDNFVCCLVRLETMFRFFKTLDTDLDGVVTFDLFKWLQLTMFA
# T1 sequence (P04632 1-268 partner): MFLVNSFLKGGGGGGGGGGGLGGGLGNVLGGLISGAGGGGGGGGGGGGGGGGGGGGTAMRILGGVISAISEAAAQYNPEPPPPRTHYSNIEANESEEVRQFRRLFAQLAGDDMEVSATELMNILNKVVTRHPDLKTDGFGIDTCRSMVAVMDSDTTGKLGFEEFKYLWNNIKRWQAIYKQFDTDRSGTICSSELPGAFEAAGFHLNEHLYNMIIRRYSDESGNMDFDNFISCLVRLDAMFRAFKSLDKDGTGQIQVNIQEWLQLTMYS
# Experimental: (§1) Calpain I, Cathepsin L and Cathepsin K enzymatic assays were carried as previously described.^33
# cathepsin L = target: T2, cathepsin L (Homo sapiens, UniProt P07711); assay: Cathepsin L enzymatic assay; type: biochemical
# T2 construct: purchased EMD Millipore 219402
# Experimental: as §1
# PL^pro = PL^pro (Severe acute respiratory syndrome coronavirus 2, UniProt P0DTD1); assay: PLpro protease inhibition (Table 2); type: biochemical, SARS-CoV-2
# [4] = Cytotoxicity in Vero E6 cells; conditions: African green monkey
# [5] = Cytotoxicity in Calu-3 cells; type: cell-based; conditions: human
# HCoV-NL63 = HCoV-NL63 CPE assay; type: cell-based; conditions: with vs without CP-100356
# HCoV-OC43 = HCoV-OC43 plaque assay; type: cell-based; conditions: Betacoronavirus 1, OC43, RD cells
# HCoV-229E = HCoV-229E CPE assay; type: cell-based; conditions: Human coronavirus 229E
# SARS-CoV-2 [6] = assay: SARS-CoV-2 antiviral immunofluorescence assay; type: cell-based; conditions: both cell lines (Vero E6 and Caco2-ACE2)
# [7] = test system: M^pros from all seven human coronaviruses; assay: Thermal shift binding assay (DSF); conditions: indicating protein stabilization
# SARS-CoV-2 [8] = assay: Antiviral activity in Calu-3 cells (Table 2); type: cell-based; conditions: Severe acute respiratory syndrome coronavirus 2, Calu-3
# caspase-3 = target: T3, caspase-3 (Homo sapiens, UniProt P42574); assay: Caspase-3 enzymatic assay; type: biochemical
# T3 construct: purchased BioVision 1083-25
# T3 sequence (P42574 29-175 limits assumed): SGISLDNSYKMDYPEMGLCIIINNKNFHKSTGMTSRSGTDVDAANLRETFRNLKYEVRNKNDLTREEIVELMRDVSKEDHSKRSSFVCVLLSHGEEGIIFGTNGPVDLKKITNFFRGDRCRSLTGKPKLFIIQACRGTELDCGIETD
# T3 sequence (P42574 176-277 limits assumed): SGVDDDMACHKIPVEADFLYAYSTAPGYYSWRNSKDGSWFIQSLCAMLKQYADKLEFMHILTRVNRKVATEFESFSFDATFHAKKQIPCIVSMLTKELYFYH
# Experimental: Caspase-3 enzymatic assay was carried out as follows: 1 unit Caspase-3 protein was diluted into 1600 μl reaction buffer (20 mM HEPES pH7.4, 2 mM EDTA, 0.1% CHAPS and 5 mM DTT); 100 μl diluted protein was incubated with 1 μl various concentration of testing compounds for 30 min at 30° C.; the enzymatic reaction was initiated by adding 1 μl of 2 mM Ac-DEVD-AFC (Medchemexpress, Catalog #HY-P1005). The reaction was monitored a Molecular Devices SpectraMax iD3 plate reader with excitation at 400 nm and emission at 505 nm at 30° C. for 1 hour. The IC50 values were calculated as described in the previous section.
# T2 sequence (P07711 114-333): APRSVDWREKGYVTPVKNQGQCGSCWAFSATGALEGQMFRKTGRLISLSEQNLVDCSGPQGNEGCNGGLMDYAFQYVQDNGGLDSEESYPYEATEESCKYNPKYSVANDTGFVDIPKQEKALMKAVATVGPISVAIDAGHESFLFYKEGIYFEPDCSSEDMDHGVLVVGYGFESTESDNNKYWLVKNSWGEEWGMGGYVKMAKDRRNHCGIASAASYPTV
compound,measurement,setting,value
CC(C)[C@H](NC(=O)OCc1ccccc1)C(=O)N[C@@H](C[C@@H]1CCNC1=O)C(=O)C(=O)NC1CC1,IC50,SARS-CoV-2 M^pro,1290 nM
O=C(NC1CC1)C(=O)[C@H](C[C@@H]1CCNC1=O)NC(=O)C1[C@H]2CCC[C@H]2CN1C(=O)OCc1ccccc1 (stereo partly shown),CC50,in vitro [1],> 250 µM
same,IC50,SARS-CoV-2 M^pro,130 nM
CC(C)C[C@H](NC(=O)OCc1ccccc1)C(=O)N[C@@H](C[C@@H]1CCNC1=O)C(=O)C(=O)NC1CC1,CC50,in vitro [2],> 100 µM
same,IC50,"SARS-CoV-2 M^pro; read-out: SARS-CoV-2 M^pro IC50, Table 2",45 nM
same,CC50,in vitro [3],> 100 µM
CC(C)C[C@H](NC(=O)OCc1ccccc1)C(=O)N[C@@H](CC1CCNC1=O)C(O)S(=O)(=O)O (stereo partly shown) [GC-376],IC50,calpain I,74 nM
same,IC50,cathepsin L,4.4 nM
O=C(N[C@H](C(=O)N[C@@H](C[C@@H]1CCNC1=O)C(=O)C(=O)NC1CC1)C1CCCCC1)OCc1ccccc1,IC50,PL^pro,> 20 µM
same,IC50,SARS-CoV-2 M^pro,380 nM
CC(C)C[C@H](NC(=O)OCc1ccc(NC(=O)CCC(=O)NCCOCCOCCNc2cccc3c2C(=O)N(C2CCC(=O)N(C)C2=O)C3=O)cc1)C(=O)N[C@@H](C[C@@H]1CCNC1=O)C(=O)C(=O)NC1CC1 (stereo partly shown),IC50,SARS-CoV-2 M^pro,110 nM
O=C(N[C@@H](Cc1ccccc1)C(=O)N[C@@H](C[C@@H]1CCNC1=O)C(=O)C(=O)NC1CC1)OCc1ccccc1,CC50,in vitro [2],> 100 µM
same,IC50,SARS-CoV-2 M^pro,780 nM
same,CC50,in vitro [3],> 100 µM
C#CCCC(=O)Nc1ccc(COC(=O)N[C@@H](CC(C)C)C(=O)N[C@@H](C[C@@H]2CCNC2=O)C(=O)C(=O)NC2CC2)cc1,CC50,[4],> 250 µM
same,IC50,PL^pro,> 20 µM
same,CC50,[5],> 250 µM
same,IC50,SARS-CoV-2 M^pro,150 nM
CC1(C)C2CN(C(=O)OCc3ccccc3)C(C(=O)NC(C=O)CC3CCNC3=O)C21 (stereo not shown) [UAWJ9-36-3],antiviral activity against HCoV-NL63 in Vero E6 cells in the presence of P-gp inhibitor CP-100356,HCoV-NL63,increased
same,EC50,HCoV-OC43,59 nM
same,EC50,HCoV-229E,130 nM
CC(C)C[C@H](NC(=O)[C@H](Cc1ccccc1)NC(=O)OCc1ccccc1)C(=O)N[C@@H](C[C@@H]1CCNC1=O)C(=O)C(=O)NC(C)C,IC50,PL^pro,> 20 µM
same,IC50,SARS-CoV-2 M^pro,130 nM
CC(C)C[C@H](NC(=O)[C@H](Cc1ccccc1)NC(=O)OCc1ccccc1)C(=O)N[C@@H](C[C@@H]1CCNC1=O)C(=O)C(=O)NCc1ccccc1,IC50,PL^pro,> 20 µM
same,IC50,SARS-CoV-2 M^pro,90 nM
CC(C)C[C@H](NC(=O)OCc1ccc(NC(=O)CCC(=O)NCCOCCOCCNc2cccc3c2C(=O)N(C2CCC(=O)NC2=O)C3=O)cc1)C(=O)N[C@@H](C[C@@H]1CCNC1=O)C(=O)C(=O)NC1CC1 (stereo partly shown),CC50,[4],> 250 µM
same,IC50,PL^pro,> 20 µM
same,CC50,[5],> 250 µM
same,IC50,SARS-CoV-2 M^pro,110 nM
O=CC(CC1CCNC1=O)NC(=O)C1C2CCCC2CN1C(=O)OCc1ccccc1 (stereo not shown) [UAWJ9-36-1],antiviral activity against HCoV-NL63 in Vero E6 cells in the presence of P-gp inhibitor CP-100356,HCoV-NL63,increased
same,EC50,HCoV-OC43,46 nM
same,antiviral potency against SARS-CoV-2 relative to GC-376,SARS-CoV-2 [6],less potent than GC-376
same,EC50,HCoV-229E,170 nM
same,melting temperature shift (ΔTm),[7],significantly increased
O=C(N[C@@H](Cc1ccc(F)cc1)C(=O)N[C@@H](C[C@@H]1CCNC1=O)C(=O)C(=O)NC1CC1)OCc1ccccc1,IC50,SARS-CoV-2 M^pro,5500 nM
CC(C)C[C@H](NC(=O)OCc1ccccc1)C(=O)N[C@@H](CC(C)C)C(=O)N[C@@H](C[C@@H]1CCNC1=O)C(=O)C(=O)NC1CC1,IC50,SARS-CoV-2 M^pro,12 nM
CCOC(=O)/C=C/[C@H](C[C@@H]1CCNC1=O)NC(=O)[C@H](CC(C)C)NC(=O)OCc1ccccc1,IC50,SARS-CoV-2 M^pro,1710 nM
O=C(N[C@@H](Cc1ccccc1)C(=O)N[C@@H](C[C@@H]1CCNC1=O)C(O)S(=O)(=O)[O][Na+])OCc1ccccc1 (stereo partly shown),IC50,SARS-CoV-2 M^pro,40 nM
CC(C)C[C@H](NC(=O)OCC1CCC(F)(F)CC1)C(=O)N[C@@H](C[C@@H]1CCNC1=O)C(=O)C(=O)NC1CC1,CC50,in vitro [1],> 250 µM
same,IC50,SARS-CoV-2 M^pro,60 nM
same,EC50,SARS-CoV-2 [8],2600 nM
CC(C)C[C@H](NC(=O)[C@@H](NC(=O)OCc1ccccc1)C(C)C)C(=O)N[C@@H](C[C@@H]1CCNC1=O)C(=O)C(=O)NC1CC1,IC50,SARS-CoV-2 M^pro,14 nM
CC(C)C[C@H](NC(=O)[C@H](Cc1ccccc1)NC(=O)OCc1ccccc1)C(=O)N[C@@H](C[C@@H]1CCNC1=O)C(=O)C(=O)NC1CC1,IC50,SARS-CoV-2 M^pro,13 nM
CC1(C)[C@@H]2C(C(=O)N[C@@H](C[C@@H]3CCNC3=O)C(=O)C(=O)NC3CC3)N(C(=O)OCc3ccccc3)C[C@@H]21 (stereo partly shown),CC50,in vitro [1],> 250 µM
same,IC50,SARS-CoV-2 M^pro,200 nM
COC(=O)C[C@H](NC(=O)[C@H](C)NC(=O)[C@@H](NC(=O)OCc1ccccc1)C(C)C)C(=O)CF [Z-VAD-FMK] (Cbz-Val-Ala-Asp(OMe)-CH2F),IC50,caspase-3,100 ± 40 nM
